pIC50: −log10 of the molar value.

One assay deals with T1, Mitogen-activated protein kinase kinase kinase 14 (Homo sapiens, UniProt Q99558). Briefly: Inhibition of NIK in human HT-29 cells assessed as LTalpha/beta2-induced p100 processing to NFkappaB2 preincubated for 30 mins before LTalpha/beta2 stimulation measured after 5 hrs. Type of assay: cell-based.
T1 sequence (Q99558 whole entry): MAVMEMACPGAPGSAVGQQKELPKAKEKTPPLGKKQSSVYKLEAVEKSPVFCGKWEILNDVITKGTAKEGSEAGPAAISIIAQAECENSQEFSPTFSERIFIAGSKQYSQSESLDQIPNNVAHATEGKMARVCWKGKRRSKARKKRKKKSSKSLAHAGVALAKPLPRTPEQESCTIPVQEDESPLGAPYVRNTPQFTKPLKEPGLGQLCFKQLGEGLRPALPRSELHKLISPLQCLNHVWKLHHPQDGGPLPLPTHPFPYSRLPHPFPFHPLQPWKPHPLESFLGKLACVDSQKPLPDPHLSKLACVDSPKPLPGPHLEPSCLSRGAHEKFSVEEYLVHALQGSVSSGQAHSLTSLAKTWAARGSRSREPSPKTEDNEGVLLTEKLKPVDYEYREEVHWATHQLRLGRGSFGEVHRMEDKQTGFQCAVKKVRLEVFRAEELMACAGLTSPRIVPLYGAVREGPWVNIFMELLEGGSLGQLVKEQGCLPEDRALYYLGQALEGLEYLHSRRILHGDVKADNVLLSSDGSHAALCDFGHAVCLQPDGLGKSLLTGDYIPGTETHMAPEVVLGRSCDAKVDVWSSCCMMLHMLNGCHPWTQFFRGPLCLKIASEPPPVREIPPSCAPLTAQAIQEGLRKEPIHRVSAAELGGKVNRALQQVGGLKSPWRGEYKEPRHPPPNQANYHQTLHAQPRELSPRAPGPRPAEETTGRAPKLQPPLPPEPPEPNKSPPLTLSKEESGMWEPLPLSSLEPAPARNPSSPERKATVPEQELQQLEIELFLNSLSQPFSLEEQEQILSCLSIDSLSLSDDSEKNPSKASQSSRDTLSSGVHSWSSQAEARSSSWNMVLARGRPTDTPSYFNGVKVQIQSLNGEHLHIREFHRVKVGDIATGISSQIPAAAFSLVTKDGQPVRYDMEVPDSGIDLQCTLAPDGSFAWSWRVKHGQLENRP
The pIC50 is the IC50 on a negative log10 scale, so that one unit is a factor of ten. For `Nc1ncc2c(n1)-c1c([nH]c3ccc(Br)cc13)CCC2`, the pIC50 is 5.34.
The same measure, in the same setting: the result for `COCCOc1cnc(N)nc1-c1c[nH]c2ccc(C#CC(C)(C)O)cc12` reads 7.70; that for `Cc1nc2ccc(Cl)cn2c1-c1ccnc(N)n1`, 4.80.

Another assay deals with T1, Mitogen-activated protein kinase kinase kinase 14. Kind of assay: Inhibition of NIK (unknown origin) autophosphorylation after 1 hr by chemiluminescent assay.
In the case of `Cc1nc2ccccn2c1-c1ccnc(N)n1`, the pIC50 was less than 4.10.
Still for that read-out and setting: the result for `Cc1ccn2c(-c3ccnc(N)n3)c(C)nc2c1` reads less than 4.10.
Still for that read-out and setting: the same measure for `Cc1nc2c(C)cccn2c1-c1ccnc(N)n1`: less than 4.10; for `Cc1cnc(N)nc1-c1c[nH]c2ccc(Cl)cc12`: 6.96; for `Cc1cnc(N)nc1-c1c(C)[nH]c2ccc(Cl)cc12`: 4.52.
Still for that read-out and setting: the same measure for `Nc1ncc2c(n1)-c1c([nH]c3ccc(Cl)cc13)CCC2`: 7.15.
As to `Nc1ncc2c(n1)-c1c[nH]c3ccc(Cl)c(c13)CC2`, the negative-log IC50 (pIC50) is 5.59.
Turning to `Nc1ncc2c(n1)-c1c([nH]c3ccc(Cl)cc13)CC2`, the pIC50 was 5.92.
In turn, `Nc1ncc2c(n1)-c1c([nH]c3ccc(Cl)cc13)CCCC2` had a pIC50 of 4.68.
The same measure, in the same setting: the same measure for `Nc1ncc2c(n1)-c1c([nH]c3ccc(Br)cc13)CCC2`: 7.00; for `Nc1ncc2c(n1)-c1c([nH]c3ccc(C#Cc4cccnc4)cc13)CCC2`: 4.52.
For the molecule `Cn1cncc1C#Cc1ccc2[nH]c3c(c2c1)-c1nc(N)ncc1CCC3`, the pIC50 is 4.52.
In the case of `CC(O)c1ccc(-c2ccc3[nH]c4c(c3c2)-c2nc(N)ncc2CCC4)cc1` (stereo not drawn), the pIC50 was 4.62.
On the same count and under the same terms, the same measure for `CC(O)c1ccc(-c2ccc3[nH]c4c(c3c2)-c2nc(N)ncc2CCC4)s1` (stereo not drawn): 4.82; for `COCCOc1cnc(N)nc1-c1c[nH]c2ccc(C#CC(C)(C)O)cc12`: 7.40; for `Cc1nc2ccc(Cl)cn2c1-c1ccnc(N)n1`: 6.22.
As to `Nc1nccc(-c2cnc3ccc(Br)cn23)n1`, the pIC50 is 6.72.
Still for that read-out and setting: the result for `Cc1nc2ccc(Cl)cc2n1-c1ccnc(N)n1` reads 5.40; that for `Nc1nccc(-n2cnc3ccc(Cl)cc32)n1`, 6.51.
The same measure, in the same setting: the result for `Cc1[nH]c2ccc(Cl)cc2c1-c1ccnc(N)n1` reads 6.52; that for `Nc1nccc(-c2c[nH]c3ccc(Cl)cc23)n1`, 6.82.
In the case of `Nc1nccc(-n2ccc3ccc(Cl)cc32)n1`, the pIC50 was 7.12.
Same read-out and setting: the same measure for `Nc1nccc(-n2ccc3ccc(Br)cc32)n1`: 7.05; for `N#Cc1ccc2ccn(-c3ccnc(N)n3)c2c1`: 7.20; for `Nc1nccc(N2CCc3ccc(Br)cc32)n1`: 6.26.
The same measure, in the same setting: the result for `Nc1nccc(-c2c[nH]c3ccc(F)cc23)n1` reads 5.74; that for `COc1ccc2[nH]cc(-c3ccnc(N)n3)c2c1`, 4.62; that for `N#Cc1ccc2[nH]cc(-c3ccnc(N)n3)c2c1`, 7.20.
Still for that read-out and setting: the result for `Cc1ccc2nc(C)c(-c3ccnc(N)n3)n2c1` reads 4.38; that for `Nc1nccc(-c2c[nH]c3ccccc23)n1`, 4.39.

(Values after ChEMBL document CHEMBL2331239, “Inhibiting NF-κB-inducing kinase (NIK): discovery, structure-based design, synthesis, structure-activity relationship, and co-crystal structures” (Bioorg Med Chem Lett, 2013).)
